Reference: patent publication US6737383B1, “Herbicidal oxadiazolidines” (priority 1999, dated 2004)

Columns and labels:
soybean = experiment: Test B pre/postemergence soybean; assay type: in vivo, Glycine max; details: Preemergence
Summary of the method: (§1)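 Test chemicals in a non-phytotoxic solvent mixture with surfactant were sprayed preemergence onto planted seeds and postemergence onto plants 2 to 18 cm tall (1- to 4-leaf stage). After twelve to sixteen days in a greenhouse, injury was visually rated against untreated controls from 0 (no effect) to 10 (complete control).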

cocklebur = experiment: Test B pre/postemergence cocklebur; assay type: in vivo, Xanthium strumarium; details: Preemergence
Summary of the method: as §1

pigweed = experiment: Test B pre/postemergence pigweed; assay type: in vivo, Amaranthus retroflexus; details: Preemergence
Summary of the method: as §1

purple nutsedge = experiment: Test B pre/postemergence purple nutsedge; assay type: in vivo, Cyperus rotundus; details: Preemergence
Summary of the method: as §1

wheat = experiment: Test B pre/postemergence wheat; assay type: in vivo, Triticum aestivum; details: Preemergence
Summary of the method: as §1

morningglory = experiment: Test B pre/postemergence morningglory; assay type: in vivo, Ipomoea hederacea; details: Preemergence
Summary of the method: as §1

sugar beet = experiment: Test B pre/postemergence sugar beet; assay type: in vivo, Beta vulgaris; details: Preemergence
Summary of the method: as §1

wild oat = experiment: Test B pre/postemergence wild oat; assay type: in vivo, Avena fatua; details: Preemergence
Summary of the method: as §1

bedstraw = experiment: Test B pre/postemergence bedstraw; assay type: in vivo, Galium aparine; details: Preemergence
Summary of the method: as §1

giant foxtail = experiment: Test B pre/postemergence giant foxtail; assay type: in vivo, Setaria faberii; details: Preemergence
Summary of the method: as §1

duck salad = experiment: Test B flood test duck salad; assay type: in vivo, Heteranthera limosa
Summary of the method: (§2)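 Flood test on plants grown to the 2-leaf stage; treated plants kept in greenhouse twelve to sixteen days, then visually rated against controls on a 0 (no effect) to 10 (complete control) scale.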

velvetleaf = experiment: Test B pre/postemergence velvetleaf; assay type: in vivo, Abutilon theophrasti; details: Preemergence
Summary of the method: as §1

rice = experiment: Test B flood test rice; assay type: in vivo, Oryza sativa
Summary of the method: as §2

smallflower flatsedge = experiment: Test B flood test smallflower flatsedge; assay type: in vivo, Cyperus difformis
Summary of the method: as §2

bamyardgrass = experiment: Test B flood test barnyardgrass; assay type: in vivo, Echinochloa crus-galli
Summary of the method: as §2

crabgrass = experiment: Test B pre/postemergence crabgrass; assay type: in vivo, Digitaria sanguinalis; details: Preemergence
Summary of the method: as §1

rape = experiment: Test B pre/postemergence rape; assay type: in vivo, Brassica napus; details: Preemergence
Summary of the method: as §1

surinam grass = experiment: Test B pre/postemergence surinam grass; assay type: in vivo, Brachiaria decumbens; details: Preemergence
Summary of the method: as §1

corn = experiment: Test B pre/postemergence corn; assay type: in vivo, Zea mays; details: Preemergence
Summary of the method: as §1

blackgrass = experiment: Test B pre/postemergence blackgrass; assay type: in vivo, Alopecurus myosuroides; details: Preemergence
Summary of the method: as §1

[1] = Rate 125 g/ha, scale of 0 to 10 where 0 is no effect and 10 is complete control
[2] = Rate 1000 g/ha, scale 0 to 10 (0 no effect, 10 complete control)
[3] = Rate 250 g/ha, scale 0 to 10 (0 no effect, 10 complete control)
[4] = Rate 500 g/ha, scale of 0 to 10 where 0 is no effect and 10 is complete control
[5] = Rate 62 g/ha, flood test species, Pre-emergence, visual evaluation after twelve to sixteen days
[6] = Rate 125 g/ha, under heading Pre-emergence, flood test species, visual evaluation after twelve to sixteen days
[7] = Rate 250 g/ha, Pre-emergence (flood test species), scale 0 to 10, 0 is no effect, 10 is complete control
[8] = Rate 500 g/ha, Pre-emergence section of Table B, 0 to 10 scale (0 no effect, 10 complete control)

COP(=O)(CCn1c(=O)on(C(=O)N(c2ccccc2)C(C)C)c1=O)OC [Compound 697]
Plant response rating, Soybean (soybean; [1]): 0 | Plant response rating, Soybean (soybean; [2]): 0 | Plant response rating, Cocklebur (cocklebur; [3]): 0 | Plant response rating, Cocklebur (cocklebur; [4]): 0 | Plant response rating, Cocklebur (cocklebur; [2]): 0 | Plant response rating, Redroot pigweed (pigweed; [1]): 0 | Plant response rating, Redroot pigweed (pigweed; [2]): 0 | Plant response rating, Nutsedge (purple nutsedge; [1]): 0 | Plant response rating, Nutsedge (purple nutsedge; [2]): 0 | Plant response rating, Wheat (wheat; [1]): 0 | Plant response rating, Wheat (wheat; [2]): 7 | Plant response rating, Morningglory (morningglory; [1]): 0 | Plant response rating, Morningglory (morningglory; [2]): 5 | Plant response rating, Sugarbeets (sugar beet; [1]): 0 | Plant response rating, Sugarbeets (sugar beet; [2]): 0 | Plant response rating, Wild oats (wild oat; [1]): 0 | Plant response rating, Wild oats (wild oat; [2]): 9 | Plant response rating, Bedstraw (bedstraw; [1]): 0 | Plant response rating, Bedstraw (bedstraw; [3]): 0 | Plant response rating, Bedstraw (bedstraw; [4]): 0 | Plant response rating, Bedstraw (bedstraw; [2]): 0 | Plant response rating, Giant foxtail (giant foxtail; [1]): 0 | Plant response rating, Giant foxtail (giant foxtail; [2]): 10 | Plant response rating, Ducksalad (0 to 10 scale, 0 is no effect, 10 is complete control) (duck salad; [5]): 0 | Ducksalad plant response rating (0 to 10 scale, 0 is no effect, 10 is complete control) (duck salad; [6]): 0 | Ducksalad plant response rating (duck salad; [7]): 0 | Ducksalad plant response rating (duck salad; [8]): 0 | Plant response rating, Velvetleaf (velvetleaf; [1]): 0 | Plant response rating, Velvetleaf (velvetleaf; [2]): 2 | Plant response rating, Rice (0 to 10 scale, 0 is no effect, 10 is complete control) (rice; [5]): 0 | Rice plant response rating (0 to 10 scale, 0 is no effect, 10 is complete control) (rice; [6]): 0 | Rice plant response rating (rice; [7]): 0 | Rice plant response rating (rice; [8]): 0 | Plant response rating, S. Flatsedge (0 to 10 scale, 0 is no effect, 10 is complete control) (smallflower flatsedge; [5]): 0 | S. Flatsedge plant response rating (0 to 10 scale, 0 is no effect, 10 is complete control) (smallflower flatsedge; [6]): 0 | S. Flatsedge plant response rating (smallflower flatsedge; [7]): 0 | S. Flatsedge plant response rating (smallflower flatsedge; [8]): 0 | Plant response rating, Barnyardgrass (0 to 10 scale, 0 is no effect, 10 is complete control) (bamyardgrass; [5]): 0 | Barnyardgrass plant response rating (0 to 10 scale, 0 is no effect, 10 is complete control) (bamyardgrass; [6]): 0 | Barnyardgrass plant response rating (bamyardgrass; [7]): 0 | Barnyardgrass plant response rating (bamyardgrass; [8]): 0 | Plant response rating, Crabgrass (crabgrass; [1]): 0 | Plant response rating, Crabgrass (crabgrass; [3]): 4 | Plant response rating, Crabgrass (crabgrass; [2]): 9 | Plant response rating, Rape (rape; [1]): 0 | Plant response rating, Rape (rape; [2]): 0 | Plant response rating, B. signalgrass (surinam grass; [1]): 0 | Plant response rating, B. signalgrass (surinam grass; [3]): 0 | Plant response rating, B. signalgrass (surinam grass; [4]): 5 | Plant response rating, B. signalgrass (surinam grass; [2]): 9 | Plant response rating, Corn (corn; [1]): 0 | Plant response rating, Corn (corn; [3]): 0 | Plant response rating, Corn (corn; [2]): 0 | Plant response rating, Blackgrass (blackgrass; [1]): 0 | Plant response rating, Blackgrass (blackgrass; [3]): 2 | Plant response rating, Blackgrass (blackgrass; [4]): 6 | Plant response rating, Blackgrass (blackgrass; [2]): 10
